The target in assay [1] is T1, HIV-1 protease (Human immunodeficiency virus type 1 group M subtype B, UniProt P04585). Briefly: biochemical. The settings on record: for inhibition at 0.41 µM: read-out: HIV-1 Protease % Inhib, dose 0.410 uM; for inhibition at 1.23 µM: read-out: HIV-1 Protease % Inhib, dose 1.230 uM; for inhibition at 3.7 µM: read-out: HIV-1 Protease % Inhib, dose 3.700 uM; for inhibition at 11 µM: read-out: HIV-1 Protease % Inhib, dose 11.000 uM; for inhibition at 33 µM: read-out: HIV-1 Protease % Inhib, dose 33.000 uM; for inhibition at 100 µM: read-out: HIV-1 Protease % Inhib, dose 100.000 uM; for inhibition at 0.37 µM: read-out: HIV-1 Protease % Inhib, dose 0.370 uM; for inhibition at 1.1 µM: read-out: HIV-1 Protease % Inhib, dose 1.100 uM; for inhibition at 3.3 µM: read-out: HIV-1 Protease % Inhib, dose 3.300 uM; for inhibition at 10 µM: read-out: HIV-1 Protease % Inhib, dose 10.000 uM; for inhibition at 30 µM: read-out: HIV-1 Protease % Inhib, dose 30.000 uM; for inhibition at 0.123 µM: read-out: HIV-1 Protease % Inhib, dose 0.123 uM. The procedure, abridged:
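Biotinylated, FITC-labeled peptide substrate (20 μl of 0.2 μM) incubated with HIV-1 protease (10 μl of 0.1 μM) and compound in 0.1 M sodium acetate pH 5.5, 1.0 M NaCl, 0.05% NP-40, 1 h, room temperature, dark. Streptavidin beads then capture uncleaved substrate; filtered labeled product read by fluorescence, giving percent inhibition.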

For assay [2], the target named is T1, HIV-1 protease. Briefly: biochemical. The procedure, abridged:
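Ki from two-fold serial inhibitor dilutions (24–48 concentrations) with 40 nM HIV-1 protease stock and 200 μM substrate stock, 90 min at room temperature; stopped with avidin beads. Reference inhibitor run in parallel; Ki by nonlinear least-squares fit.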

Where two headings read alike, the source gives them in different places.

Experimental findings from US5686486A, “4-hydroxy-benzopyran-2-ones and 4-hydroxy-cycloalkyl[b]pyran-2-ones useful to treat retroviral infections” (priority 1995, dated 1997) are described below.

With `CC(C)(C)OC(=O)NCCC(=O)Nc1cccc(C(c2c(O)c3ccccc3oc2=O)C2CC2)c1` (centres unmarked) [Example 165, Carbamic acid, [3-[[3-[cyclopropyl(4-hydroxy-2-oxo-2H-1-benzopyran-3-yl)methyl]phenyl]amino]-3-oxopropyl]-, 1,1-dimethylethyl ester], in assay [1], the inhibition at 0.41 µM was found to be 61.7%, the inhibition at 1.23 µM is 86.7%, the inhibition at 3.7 µM worked out at 98.4% and the inhibition at 11 µM was 106%. For the same compound, in assay [1], the inhibition at 33 µM was determined as 111% and the inhibition at 100 µM amounted to 114%. Further, the Ki (in general, a dissociation constant, usually derived from enzyme kinetics or from competition with a known ligand) in assay [2] (HIV-1 FITC KI) is 86 nM.

For the compound `COc1ccc2c(O)c(C(c3cccc(NC(=O)CCNC(=O)OC(C)(C)C)c3)C3CC3)c(=O)oc2c1` (centres unmarked) [Example 167, Carbamic acid, [3-[[3-[cyclopropyl(4-hydroxy-7-methoxy-2-oxo-2H-1-benzopyran-3-yl)methyl]phenyl]amino]-3-oxopropyl]-, 1,1-dimethylethyl ester], in assay [1], the inhibition at 0.41 µM worked out at 83.2%, the inhibition at 1.23 µM came to 99.5%, the inhibition at 3.7 µM was 113% and the inhibition at 11 µM amounted to 114%. In addition, in assay [1], the inhibition at 33 µM worked out at 114% and the inhibition at 100 µM was determined as 116%. The compound further displayed a Ki in assay [2] (HIV-1 FITC KI) of 28 nM.

As for `O=C(CCn1ccc2ccccc21)Nc1cccc(C(c2c(O)c3ccccc3oc2=O)C2CC2)c1` (stereo not drawn) [Example 168, Coumarin, 4-hydroxy-3-(α-(3-((3-(1H-indol-1-yl)-1-oxopropyl)amino)phenyl)cyclopropylmethyl)], in assay [1], the inhibition at 0.37 µM is 12.4%, the inhibition at 1.1 µM came to 46.4%, the inhibition at 3.3 µM amounted to 74.9% and the inhibition at 10 µM amounted to 94.7%. In addition, in assay [1], the inhibition at 30 µM came to 107%. For the same compound, the Ki in assay [2] (HIV-1 FITC KI) is 135 nM.

For `CCC(=O)C1CCCCCc2c1oc(=O)c(C(c1ccccc1)C1CC1)c2O` (centres unmarked) [Example 174, 3-(Cyclopropylphenylmethyl)-5,6,7,8,9,10-hexahydro-4-hydroxy-10-(1-oxopropyl)-2H-cycloocta[b]pyran-2-one], in assay [1], the inhibition at 0.123 µM was found to be 11.4%, the inhibition at 0.37 µM amounted to 35.8%, the inhibition at 1.1 µM amounted to 75% and the inhibition at 3.3 µM stood at 95.9%. Besides, in assay [1], the inhibition at 10 µM amounted to 104% and the inhibition at 30 µM was found to be 97.8%. Also, in assay [2] (read-out: HIV-1 FITC KI), the Ki stood at 35 nM.

`O=c1oc2c(c(O)c1C(c1ccccc1)C1CC1)CCCCCC2C(O)C1CC1` (centres unmarked) [Example 176, 10-(Cyclopropylhydroxymethyl)-3-(cyclopropylphenylmethyl)-5,6,7,8,9, 10-hexahydro-4-hydroxy-2H-cycloocta[b]pyran-2-one]: in assay [1], the inhibition at 0.37 µM stood at 27.3%, the inhibition at 1.1 µM is 82.6%, the inhibition at 3.3 µM was determined as 104% and the inhibition at 10 µM is 109%. For the same compound, the inhibition at 30 µM in assay [1] was found to be 118%. For the same compound, the Ki in assay [2] (read-out: HIV-1 FITC KI) turned out to be 37 nM.

In the case of `COCC1CCCCCc2c1oc(=O)c(C(c1ccccc1)C1CC1)c2O` (centres unmarked) [Example 177, 3-(Cyclopropylphenylmethyl)-5,6,7,8,9,10-hexahydro4-hydroxy-10-(methoxymethyl)-2H-cycloocta[b]pyran-2-one], in assay [1], the inhibition at 0.37 µM amounted to 16.9%, the inhibition at 1.1 µM stood at 53.9%, the inhibition at 3.3 µM was 88.9% and the inhibition at 10 µM was determined as 104%. The inhibition at 30 µM in assay [1] was 104%. Besides, in assay [2] (read-out: HIV-1 FITC KI), the Ki was found to be 55 nM.

Consider `COCCC1CCCCCc2c1oc(=O)c(C(c1ccccc1)C1CC1)c2O` (centres unmarked) [Example 178, 3-(Cyclopropylphenylmethyl)-5,6,7,8,9,10-hexahydro-4-hydroxy-10-(2-methoxyethyl)-2H-cycloocta[b]pyran-2-one], for which, in assay [1], the inhibition at 0.123 µM turned out to be 16.2%, the inhibition at 0.37 µM is 45.5%, the inhibition at 1.1 µM worked out at 86.4% and the inhibition at 3.3 µM was determined as 98.8%. For the same compound, in assay [1], the inhibition at 10 µM worked out at 105% and the inhibition at 30 µM stood at 103%. Moreover, in assay [2] (read-out: HIV-1 FITC KI), the Ki amounted to 27 nM.

On to `O=c1oc2c(c(O)c1C(c1ccccc1)C1CC1)CCCCCC2CC1CCCOC1` (centres unmarked) [Example 179, 3-(Cyclopropylphenylmethyl)-5,6,7,8,9,10-hexahydro-4-hydroxy-10-[(tetrahydro-2H-pyran-3-yl)methyl]-2H-cycloocta[b]pyran-2-one], for which, in assay [1], the inhibition at 0.37 µM is 38.6%, the inhibition at 1.1 µM is 71.6%, the inhibition at 3.3 µM came to 87.2% and the inhibition at 10 µM was determined as 93.7%. The inhibition at 30 µM in assay [1] came to 91.1%. For the same compound, the Ki in assay [2] (read-out: HIV-1 FITC KI) was determined as 19 nM.

For the compound `O=c1oc2c(c(O)c1C(c1ccccc1)C1CC1)CCCCC2Cc1ccccc1` (centres unmarked) [Example 182, 3-(Cyclopropylphenylmethyl)-6,7,8,9-tetrahydro-4-hydroxy-9-(phenylmethyl)-cyclohepta[b]pyran-2(5H)-one], in assay [1], the inhibition at 0.37 µM came to 22.3%, the inhibition at 1.1 µM was 51%, the inhibition at 3.3 µM is 83.7% and the inhibition at 10 µM came to 99.2%. In addition, the inhibition at 30 µM in assay [1] turned out to be 98.7%. Besides, the inhibition constant (Ki) in assay [2] (read-out: HIV-1 FITC KI) amounted to 117 nM.

For the compound `CC(C)CC1CCCCc2c1oc(=O)c(C(c1ccccc1)C1CC1)c2O` (centres unmarked) [Example 183, 3-(Cyclopropylphenylmethyl)-6,7,8,9-tetrahydro4-hydroxy-9-(2-methylpropyl)-cyclohepta[b]pyran-2(5H)-one], in assay [1], the inhibition at 0.123 µM amounted to 20.9%, the inhibition at 0.37 µM amounted to 56.5%, the inhibition at 1.1 µM came to 85.5% and the inhibition at 3.3 µM was 97.3%. Besides, in assay [1], the inhibition at 10 µM was 95.8% and the inhibition at 30 µM came to 89.7%. Also, the Ki in assay [2] (read-out: HIV-1 FITC KI) turned out to be 13 nM.

With `CC(C)CCC1CCCCc2c1oc(=O)c(C(c1ccccc1)C1CC1)c2O` (centres unmarked) [Example 184, 3-(Cyclopropylphenylmethyl)-6,7,8,9-tetrahydro4-hydroxy-9-(3-methylbutyl)-cyclohepta[b]pyran-2(5H)-one], in assay [1], the inhibition at 0.37 µM came out at 18%, the inhibition at 1.1 µM came to 60.7%, the inhibition at 3.3 µM was found to be 86% and the inhibition at 10 µM came to 96.5%. For the same compound, the inhibition at 30 µM in assay [1] was 93.1%. Also, the Ki in assay [2] (read-out: HIV-1 FITC KI) came to 46 nM.

As to `CCC1CCCCc2c1oc(=O)c(C(c1ccccc1)C1CC1)c2O` (centres unmarked) [Example 185, 3-(Cyclopropylphenylmethyl)-9-ethyl-6,7,8,9-tetrahydro-4-hydroxy-cyclohepta[b]pyran-2(5H)-one], in assay [1], the inhibition at 0.123 µM came to 18.7%, the inhibition at 0.37 µM turned out to be 40.3%, the inhibition at 1.1 µM is 71.5% and the inhibition at 3.3 µM was found to be 92.6%. For the same compound, in assay [1], the inhibition at 10 µM is 97.6% and the inhibition at 30 µM was 91.8%. In assay [2] (read-out: HIV-1 FITC KI), the Ki turned out to be 22 nM.

On to `CCCC1CCCCc2c1oc(=O)c(C(c1ccccc1)C1CC1)c2O` (centres unmarked) [Example 188, 3-(Cyclopropylphenylmethyl)-6,7,8,9-tetrahydro-4-hydroxy-9-propyl-cyclohepta[b]pyran-2(5H)-one], for which, in assay [1], the inhibition at 0.123 µM worked out at 27.3%, the inhibition at 0.37 µM was 57%, the inhibition at 1.1 µM stood at 82.2% and the inhibition at 3.3 µM was 88.4%. In addition, in assay [1], the inhibition at 10 µM turned out to be 88.3% and the inhibition at 30 µM turned out to be 84.5%. Besides, in assay [2] (read-out: HIV-1 FITC KI), the Ki was 26 nM.

In the case of `O=c1oc2c(c(O)c1C(c1ccccc1)C1CC1)CCCCC2CC1CCCO1` (centres unmarked) [Example 189, 3-(Cyclopropylphenylmethyl)-6,7,8,9-tetrahydro4-hydroxy-9-[(tetrahydro-2-furanyl)methyl]-cyclohepta[b]pyran-2(5H)-one], in assay [1], the inhibition at 0.123 µM turned out to be 15.7%, the inhibition at 0.37 µM was determined as 37.6%, the inhibition at 1.1 µM is 69.8% and the inhibition at 3.3 µM is 89.3%. Besides, in assay [1], the inhibition at 10 µM turned out to be 98.1% and the inhibition at 30 µM came to 99.3%. Also, the Ki in assay [2] (read-out: HIV-1 FITC KI) amounted to 36 nM.

`COCCC1CCCCc2c1oc(=O)c(C(c1ccccc1)C1CC1)c2O` (centres unmarked) [Example 194, 3-(Cyclopropylphenylmethyl)-6,7,8,9-tetrahydro4-hydroxy-9-(2-methoxyethyl)-cyclohepta[b]pyran-2(5H)-one]: the “HIV-1 Protease % Inhib” value in assay [1] (dose 1.100 uM) is 81.89%; in assay [1] (dose 3.300 uM), 102.84%; in assay [1] (dose 10.000 uM) it was 108.17%; in assay [1] (dose 30.000 uM), 107.45%. Moreover, in assay [1], the inhibition at 0.37 µM was 39.7%. For the same compound, the Ki in assay [2] (read-out: HIV-1 FITC KI) stood at 28 nM.

Turning to `O=c1oc2c(c(O)c1C(c1ccccc1)C1CC1)CCCCC2C(O)C1CC1` (centres unmarked) [Example 195, 9-(Cyclopropylhydroxymethyl)-3-(cyclopropylphenylmethyl)-6,7,8,9-tetrahydro-4-hydroxy-cyclohepta[b]pyran-2(5H)-one], in assay [1], the inhibition at 0.37 µM is 23.5%, the inhibition at 1.1 µM is 71.4%, the inhibition at 3.3 µM stood at 90.8% and the inhibition at 10 µM came to 108%. Besides, the inhibition at 30 µM in assay [1] stood at 117%. For the same compound, in assay [2] (read-out: HIV-1 FITC KI), the Ki is 22 nM.
